According to US20230044427A1, “EVAPORATION RETARDANT MEMBRANE FOR ODORANT COMPOSITIONS” (BASF SE, priority 2020, published 2023):

Columns and labels:
[1] = Evaporation cell test: weight loss of volatile compound through coated or uncoated paper; type: physicochemical; details: 23° C., 50% humidity; for Weight loss of volatile compound through uncoated paper V2: uncoated paper V2, no coating
Description: The test was carried out according to the method described by Diehl, H. Pfeiffer, A.-M, Seyffer H., (2014), New testing method for functional barriers, International Paperworld IPW 8-11. All tests were carried out in a climate chamber at 23° C. and 50% humidity.
For this, circular specimens were cut from the paper coated with the respective coating. The specimen was placed in the holder of the evaporation cell. A defined amount of the respective volatile compound was filled into the chamber of the evaporation cell, and the chamber was closed by the holder and immediately weighed thereafter to an accuracy of 0.1 mg. The closed evaporation cell was reweighed after 1 h, 4 h, 1 d and 2 d.

[2] = vapor pressure at 25° C.; cited from earlier work
[3] = water / 1-octanol; cited from earlier work
[4] = paper 1, Polymer dispersion 1, thickness 10 g/m^2, coverage 50%
[5] = paper 1, Polymer dispersion 2, thickness 10 g/m^2, coverage 50%
[6] = paper 2, Polymer dispersion 1, thickness 15 g/m^2, coverage 30%
[7] = paper 2, Polymer dispersion 2, thickness 5 g/m^2, coverage 70%
[8] = paper V1, Polymer dispersion 1, thickness 10 g/m^2, coverage 100%
[9] = paper V1, Polymer dispersion 2, thickness 10 g/m^2, coverage 100%

Row | Compound | Weight loss of volatile compound through respective coating of paper 1 [1, 4] | Weight loss of volatile compound through respective coating of paper 1 [1, 5] | Weight loss of volatile compound through respective coating of paper 2 [1, 6] | Weight loss of volatile compound through respective coating of paper 2 [1, 7] | Weight loss of volatile compound through respective coating of paper V1 [1, 8] | Weight loss of volatile compound through respective coating of paper V1 [1, 9] | Weight loss of volatile compound through uncoated paper V2 [1] | VP(25° C.) [2] | Log Pow [3]
1 | CCOC(C)=O [Ethyl acetate] | 1320 g/(m^2d) | 1300 g/(m^2d) | 3300 g/(m^2d) | 653 g/(m^2d) | 660 g/(m^2d) | 650 g/(m^2d) | 2450 g/(m^2d) | 7 mbar | 0.9
2 | CC(=O)OCC(C)C [Isobutyl acetate] | 300 g/(m^2d) | 320 g/(m^2d) | 749 g/(m^2d) | 163 g/(m^2d) | 150 g/(m^2d) | 160 g/(m^2d) | 3500 g/(m^2d) | 20 mbar | 1.8
3 | CCCCCCC [n-Heptane] | 2 g/(m^2d) | 1200 g/(m^2d) | 5 g/(m^2d) | 603 g/(m^2d) | 1 g/(m^2d) | 600 g/(m^2d) | 4500 g/(m^2d) | 61 mbar | 4.8
4 | CCCCCC [n-Hexane] | 4 g/(m^2d) | 1900 g/(m^2d) | 10 g/(m^2d) | 953 g/(m^2d) | 2 g/(m^2d) | 950 g/(m^2d) | > 4000 g/(m^2d) | 201 mbar | 3.9
5 | CCCCCC=O [Hexanal] | 291 g/(m^2d) | 702 g/(m^2d) | 725 g/(m^2d) | 353 g/(m^2d) | 145 g/(m^2d) | 350 g/(m^2d) | 3750 g/(m^2d) | 15 mbar | 1.9
6 | C=C(C)[C@H]1CC=C(C)CC1 [Limonene] | 2 g/(m^2d) | 100 g/(m^2d) | 5 g/(m^2d) | 53 g/(m^2d) | 1 g/(m^2d) | 50 g/(m^2d) | 1750 g/(m^2d) | 2 mbar | 4.6
7 | CC(=O)OCCC(C)C [Isoamyl acetate] | 120 g/(m^2d) | 204 g/(m^2d) | 295 g/(m^2d) | 103 g/(m^2d) | 60 g/(m^2d) | 100 g/(m^2d) | 2100 g/(m^2d) | 5 mbar | 2.5
8 | CC(C)=CCCC(C)CC=O (stereo not drawn) [Citronellal] | 2 g/(m^2d) | 2 g/(m^2d) | 5 g/(m^2d) | 4 g/(m^2d) | 1 g/(m^2d) | 1 g/(m^2d) | 950 g/(m^2d) | 0.5 mbar | 3.8
